In patent publication US11708318B2, “Polymorphic forms of RAD1901-2HCL” (Radius Pharmaceuticals, Inc., priority 2017, dated 2023):
Entries after “also recorded” stand apart in the source; their conditions may differ. One block for each compound: values may come before it.

Key:
[1] = Gravimetric Vapour Sorption (GVS), with XRPD of the recovered sample; format: physicochemical
Description: Sorption isotherms were obtained using a SMS DVS Intrinsic moisture sorption analyzer, controlled by DVS Intrinsic Control software v1.0.1.2 (or v 1.0.1.3). The sample temperature was maintained at 25° C. by the instrument controls. The humidity was controlled by mixing streams of dry and wet nitrogen, with a total flow rate of 200 ml/min. The relative humidity was measured by a calibrated Rotronic probe (dynamic range of 1.0-100% RH), located near the sample. The weight change, (mass relaxation) of the sample as a function of % RH was constantly monitored by the microbalance (accuracy ±0.005 mg).
A sample (e.g., 20 mg) was placed in a tared mesh stainless steel basket under ambient conditions. The sample was loaded and unloaded at 40% RH and 25° C. (typical room conditions). A moisture sorption isotherm was performed as outlined below (2 scans giving 1 complete cycle). Standard isotherms were performed at 25° C. at 10% RH intervals over a 0-90% RH range. Data analysis was carried out using Microsoft Excel using DVS Analysis Suite v6.2 (or 6.1 or 6.0).
In a cycle of 2 scans, the first scan was performed with adsorption of 40-90% RH, followed by a second scan with desorption of 90-0% RH and adsorption of 0-40% RH, with intervals of 10% RH, at 25° C. with stability dm/dt of 0.002% ° C./min. The sorption time was 6 hr time out.
The sample was recovered after completion of the isotherm and re-analyzed by XRPD. Custom moisture sorption methods were also performed at 25° C. at fixed % RH intervals over a 0-95% RH range, with the purpose to fully understand the sorption/desorption behavior of the compound under elevated conditions.
To further explore the humidity behavior of Sample 1 (Form 1) upon exposure to high RH (>90%), custom GVS experiments were designed and carried out. Initially, the sample was treated by holding at 90 and then 95% RH for ˜12 hours to see if hydrate formation could be observed (HighRH method of Steps 1 and 2 of Table 2, FIGS. 6C-6D).
To test the stability of the hydrated state, GVS method HighRH_Desorp_3 was designed with a desorption step and subsequent adsorption (see Table 2 with steps 1-4, FIGS. 6E-6F).
Finally, to ensure complete conversion to the anhydrous and hydrated forms, a GVS experiment was designed to increase both the length of the desorption step at 0% RH, and the adsorption step at 95% RH, respectively (Table 3). Based on the weight stabilization observed in the kinetic plots for Sample 1 in HighRH and HighRH_Desorp_3 methods discussed above (FIGS. 6D and 6F), a holding time of 800 mins at 0% RH and 1600 mins at 95% RH were chosen. A double cycle was also recorded for this experiment to observe whether the sample would return to Form 1 or form a mixed anhydrous/hydrated species (see Table 3, FIGS. 6G-6H).

[2] = Storage at elevated temperature/humidity, analysed by XRPD; format: physicochemical; conditions: 1 week
Description: Samples 1 and 2 were characterized by XRPD at various conditions. XRPD patterns were collected for the samples at ambient condition as the samples were provided; at variable temperature (VT-XRPD); at variable humidity (VH-XRPD); after the samples were exposed to 40° C./75% RH for 1 week and 25° C./97% RH for 1 week, respectively; and after a GVS measurement wherein the samples were exposed to 0-90% RH. Samples 1 and 2 were also characterized by ^1H NMR, TGA, DSC, KF, IC, GVS (exposed to 0-90% RH), PLM, SEM, and HPLC (Table 5).

[3] = Variable humidity XRPD (VH-XRPD); format: physicochemical
Description: Samples run under non-ambient conditions were prepared by gently packing into a cavity, cut into a silicon wafer to obtain a flat surface and mounted onto a humidity stage with an Ansyco controller and humidity sensor positioned directly next to the sample holder. The data were collected at 298.15 K with water temperature of 35.0° C., in an angular range of 3 to 31° 2θ, with a step size of 0.025° 2θ, a collection time of 2.0 sec/step, and a collection time at each % RH was 41 min 28 sec. X-Ray Powder Diffraction (XRPD) patterns were collected at variable humidity values from 0 to 95% RH, based upon the humidity behavior of each compound observed during GVS experiments (described herein). For each Variable Humidity X-Ray Powder Diffraction (VH-XRPD) experiment performed, the % RH values selected are provided alongside the relevant experimental result. Full tables of detailing the % RH value at each collection point and the associated delay time at each value are provided in Tables 10-12. To fully characterize the polymorphic behavior of Samples 1 and 2 at variable humidity, and to collect reference XRPD patterns for the ‘pure’ anhydrous Form 1 and Form 2 material, and ‘pure’ hydrated Form 3 material, Variable Humidity (VH) XRPD experiments were conducted on Samples 1 and 2. Initially, VH-XRPD experiments were conducted using Sample 1, and XRPD diffractograms were collected at selected humidity values, in line with those collected during GVS experiments (see FIGS. 6E-6F). XRPD diffractograms were collected initially at ambient RH, then collected over 24 hours at ˜95% RH and finally collected during desorption steps to 0% RH and over 10 hours at 0% RH (see FIG. 4C). […]

[4] = Storage at elevated temperature/humidity, analysed by XRPD; format: physicochemical
estrogen receptor (ER) = molecular target: T1, estrogen receptor (ER) (Homo sapiens, UniProt P03372); conditions: cited from earlier work
T1 sequence (P03372 1-595): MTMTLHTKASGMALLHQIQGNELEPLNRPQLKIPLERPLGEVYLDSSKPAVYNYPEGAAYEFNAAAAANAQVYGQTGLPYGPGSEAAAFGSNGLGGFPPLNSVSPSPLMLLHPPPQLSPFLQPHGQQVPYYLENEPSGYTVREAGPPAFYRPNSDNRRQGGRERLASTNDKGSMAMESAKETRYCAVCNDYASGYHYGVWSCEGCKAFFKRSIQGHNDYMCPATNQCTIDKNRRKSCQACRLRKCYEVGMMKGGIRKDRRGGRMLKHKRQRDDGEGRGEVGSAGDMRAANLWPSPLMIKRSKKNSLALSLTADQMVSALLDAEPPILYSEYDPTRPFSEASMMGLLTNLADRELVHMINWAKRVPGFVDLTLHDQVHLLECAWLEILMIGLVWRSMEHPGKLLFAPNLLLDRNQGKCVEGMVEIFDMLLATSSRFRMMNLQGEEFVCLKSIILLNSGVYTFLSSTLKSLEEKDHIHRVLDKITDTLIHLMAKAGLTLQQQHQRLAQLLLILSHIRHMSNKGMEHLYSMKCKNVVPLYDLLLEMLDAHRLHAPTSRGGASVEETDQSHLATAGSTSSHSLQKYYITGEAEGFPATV

Hygroscopicity (GVS) ([1]; 0-90% RH): hygroscopic | XRPD after storage at 25° C./97% RH for 1 week ([2]; 25° C./97% RH): Form 3 (FIGS. 5B and | XRPD after storage at 40° C./75% RH for 1 week ([2]; 40° C./75% RH): Form 3 (FIG. 5B) | VH-XRPD at 0% RH ([3]; 0% RH): 5E). Form 2 at 0% RH
Structure (SMILES): CCNCCc1ccc(CN(CC)c2cc(OC)ccc2[C@@H]2CCc3cc(O)ccc3C2)cc1.Cl.Cl [Sample 2]
XRPD post GVS (uptake 0-90% RH) ([1]; after exposure to 0-90% RH): mixture of Form 2 and Form 3; also recorded: Mixture of form 2 and 3 | VH-XRPD at high RH (>90%) ([3]; >90% RH (92-93% RH recorded)): conversion toward the hydrated state; also recorded: Conversion to Form 3

XRPD post storage at 25° C./97% RH (10 days) ([4]; 25° C./97% RH): Consistent with Form 3 | XRPD post storage at 40° C./75% RH (10 days) ([4]; 40° C./75% RH): Consistent with Form 3
Structure (SMILES): CCNCCc1ccc(CN(CC)c2cc(OC)ccc2[C@@H]2CCc3cc(O)ccc3C2)cc1.Cl.Cl [Lyophilization in water]

Structure (SMILES): CCNCCc1ccc(CN(CC)c2cc(OC)ccc2[C@@H]2CCc3cc(O)ccc3C2)cc1 [RAD1901]
Selectivity of binding to the estrogen receptor (ER) (estrogen receptor (ER)): good selectivity
